This note sets out measurements from paper PMC10192568, “Comparison of pharmacokinetic profiles of seven major bioactive components in normal and non-alcoholic fatty liver disease (NAFLD) rats after oral administration of Ling-Gui-Zhu-Gan decoction by UPLC-MS/MS” (Frontiers in Pharmacology, 2023).

Data set [1] is described as follows: Pharmacokinetic study of LGZGD components in plasma of normal and NAFLD rats after oral administration (UPLC-MS/MS). Type of data set: in vivo, Male Sprague–Dawley rats. Particulars: for AUC0-∞ value decreased / C max value decreased: NAFLD rats compared with normal rats; for Tmax / AUC(0-inf) / AUC(0-t) / Cmax / half-life / MRT last: Sprague-Dawley, rat; for MRT last: read-out: MRT0-t. As for the experimental part: Male Sprague–Dawley rats, weighing 200–220 g, SPF grade, were purchased from Shanghai Sippr-BK laboratory animal Co. Ltd. (Shanghai, China) and raised in the Laboratory Animal Center of Shanghai University of Traditional Chinese Medicine. The rats were kept in an environmentally controlled condition: on a 12:12 h light–dark cycle (lights on at 7:00 a.m.) with regulated temperature and humidity, at a temperature of 22°C–24°C and a relative humidity of 60–65%. In the experiment, the rats in the normal group were fed a certified standard rat diet and tap water, while those in the model group were fed a high-fat diet for 8 weeks to construct the NAFLD model (high-fat diet: 2% cholesterol, 10% lard, 0.1% sodium cholate, 10% yolk powder, and 77.9% normal diet). The animal experiment program was approved by the Animal Committee of Shanghai University of Traditional Chinese Medicine (License No.: PZSHUTCM201016001).
An Agilent 1290 UPLC system was combined with an Agilent 6460 series MS/MS system (Agilent Technologies, Santa Clara, CA, United States) to quantify the analytes in the ESI-positive ionization mode. The mass spectrum conditions were as follows: a capillary voltage of 4,000 V; a gas flow rate of 10 L/min; a nebulizer of 30 psi; a gas temperature of 350°C; and a Delta EMV(+) of 200 V. Five microliters of the samples was injected into an Agilent SB-C18 column (2.1 mm × 50 mm, 1.8 μm particles). The analytes were separated using the gradient elution method, and the mobile phase was composed of water (0.05% V/V formic acid) (A) and acetonitrile (B) at a flow rate of 0.4 mL/min (0–1 min, 10–10% B; 1–5 min, 10–90% B; 5–7 min, 90–90% B; and 7–7.1 min, B 90–10%; rebalance for 2 min).
A plasma sample of 50 µL was placed in a 1.5 mL centrifuge tube with 10 µL of schisandrin (IS) solution (50 ng/mL) and mixed for 5 min. The samples were successively extracted with 500 µL of ethyl acetate and treated with 250 µL of methanol, which were then mixed for 5 min and centrifuged at 4°C for 10 min (at 18,000 rpm). All the supernatant was absorbed into another 1.5 mL centrifuge tube, dried under a gentle stream of nitrogen at 37°C, and then added with 50 µL of 50% methanol for reconstruction. After being centrifuged at 4°C for 10 min (at 18,000 rpm), 5 µL of the supernatant was extracted and injected into a chromatographic column for analysis, and the chromatograms were recorded.
The rats were randomly divided into the normal group and the model group. According to the preliminary experiment, the dose was adjusted to about eight times the normal dose ([Gu, 2020]; [Li et al., 2023]). […] The animal research program was approved by the Animal Committee of Shanghai University of Traditional Chinese Medicine. At 0, 0.083, 0.25, 0.5, 0.75, 1, 2, 4, 6, 8, 10, 12, 24, and 48 h after dosing, 150 µL blood samples were collected from the rats' orbital venous plexus into centrifuge tubes containing 10 IU of sodium heparin. After being centrifuged at 5,000 rpm (4°C) for 10 min, the plasma was transferred to 1.5 mL polypropylene tubes and stored at −80°C until the plasma samples were analyzed.
Important pharmacokinetic parameters, which included the maximum plasma concentration (C max), time to maximum concentration (T max), half-life (t 1/2), area under the curve (AUC0-t), and total area under the curve (AUC0-∞), were hereby calculated using the DAS 3.2.8 software. Meanwhile, the pharmacokinetic data of the normal and model rats were compared using the SPSS software (version 21.0). Besides, Spearman rank bivariate correlation coefficient was used to determine the correlation between AUC values and UGT1A1 and nine other transporters. All the calculated data were expressed as mean ± SD. When p < 0.05, the difference was considered significant and statistically significant; and when p < 0.01 or <0.001, the difference was considered very significant.

Data set [2] in a line: Stability of the seven components in rat plasma QC samples. Type of data set: physicochemical. The note with it: n = 6; for Stability during 24 h at 4°C, RE: auto sampler. As to the method:
Stability refers to the ability of the components to retain their chemical properties in the matrix. To analyze the stability of all components in the plasma, six replicates of QC samples at three concentrations were hereby prepared under each condition. The stability of the QC samples at three concentrations was analyzed under different storage conditions: −80°C for 30 days, after three freeze–thaw cycles, and 24 h in an auto sampler at 4°C.

Setting [3] is: NAFLD rats compared with the normal group, oral LGZGD.
Setting [4] is: Normal group, male SD rats, oral LGZGD extract 23 g/kg, plasma, mean ± SD, n = 6.
Where [5] appears, read: male, plasma, po, 23 g/kg, Model (NAFLD) group, male SD rats, oral LGZGD extract 23 g/kg, plasma, mean ± SD, n = 6.
Where [6] appears, read: male, plasma, po, 23 g/kg, Normal group, male SD rats, oral LGZGD extract 23 g/kg, plasma, mean ± SD, n = 6.

Where two headings read alike, the source gives them in different places.

As usually defined, the Tmax is the time from dosing to the highest level. Broadly, the AUC(0-inf) is the area under the concentration-time curve extrapolated to infinity. High values mean high exposure, low ones low exposure. What is called AUC(0-t) is exposure summed from dosing to a finite time, without extrapolation to infinity. High values mean more exposure, low ones less exposure. As usually defined, the Cmax is the peak of the concentration-time curve. As a reminder, the half-life is the time needed for the level to fall by half in the phase considered. The low end stands for fast loss, the high end for slow loss.

Consider `O=C(/C=C/c1ccc(O[C@@H]2O[C@H](CO)[C@@H](O)[C@H](O)[C@H]2O)cc1)c1ccc(O)cc1O` [Isoliquiritin, isoliquiritin], for which, in data set [1] (oral LGZGD), the “AUC0-∞ value decreased” value came out at 65.8% and the “C max value decreased” value is 31.1%. Besides, in data set [1] (setting [3]), the MRT decreased turned out to be 21.7%. Also, the Tmax in data set [1] (setting [4]) was 0.6 ± 0.1 h. In data set [1] (setting [5]), this compound gave an AUC(0-inf) of 56.9 ± 10.8 ng·h/mL, an area under the curve AUC(0-t) of 51.9 ± 7.8 ng·h/mL, a Cmax of 4.2 ± 0.8 ng/mL and a half-life of 786 ± 450 min. Moreover, in data set [1] (setting [5]), the MRT last was determined as 15.5 ± 1.8 h. Also, in data set [1] (setting [6]), the area under the curve AUC(0-inf) amounted to 166 ± 10.5 ng·h/mL, the exposure AUC(0-t) worked out at 108 ± 21.2 ng·h/mL, the Cmax came out at 6.1 ± 1.8 ng/mL and the half-life is 552 ± 264 min. In data set [1] (setting [6]), the MRT last was 19.8 ± 1.7 h. In addition, in data set [2] (high QC level), the “Stability during 24 h at 4°C, RE” value is −12.7%; the “Three freeze–thaw cycles, RE” value is 3.9%; the “−80°C for 30 days, RE” value worked out at 4.0%. In addition, in data set [2] (low QC level), the “Stability during 24 h at 4°C, RE” value was determined as 1.3%; the “Three freeze–thaw cycles, RE” value is −6.8%; the “−80°C for 30 days, RE” value is given as −1.1%. Moreover, in data set [2] (medium QC level), the “Stability during 24 h at 4°C, RE” value is on record as 11.0%; the “Three freeze–thaw cycles, RE” value was −3.0%; the “−80°C for 30 days, RE” value is reported as −2.1%.
For `O=C1C[C@@H](c2ccc(O[C@@H]3O[C@H](CO)[C@@H](O)[C@H](O)[C@H]3O)cc2)Oc2cc(O)ccc21` [Liquiritin, liquiritin], in data set [1] (oral LGZGD), the “AUC0-∞ value decreased” value was found to be 53.7% and the “C max value decreased” value amounted to 63.8%. This compound also had an MRT0-t prolonged in data set [1] (setting [3]) of 31.2%. For the same compound, the “t 1/2” value in data set [1] (setting [4]) is 5.2 ± 2.5 h. Moreover, in data set [1] (setting [5]), the AUC(0-inf) was found to be 53400 ± 22100 ng·h/mL, the area under the curve AUC(0-t) was 52800 ± 22300 ng·h/mL, the maximum concentration (Cmax) came out at 3740 ± 991 ng/mL and the Tmax turned out to be 6.8 ± 4.1 h. In data set [1] (setting [5]), the half-life was 360 ± 204 min and the MRT last was determined as 10.1 ± 1.3 h. Also, in data set [1] (setting [6]), the AUC(0-inf) amounted to 115000 ± 32900 ng·h/mL, the AUC(0-t) is 115000 ± 32900 ng·h/mL, the peak level (Cmax) was 10300 ± 1850 ng/mL and the Tmax is 4.8 ± 1.1 h. The MRT last in data set [1] (setting [6]) stood at 7.7 ± 1.6 h. In data set [2] (high QC level), the “Stability during 24 h at 4°C, RE” value is listed as −3.0%; the “Three freeze–thaw cycles, RE” value was determined as 4.1%; the “−80°C for 30 days, RE” value is given as −1.2%. Besides, in data set [2] (low QC level), the “Stability during 24 h at 4°C, RE” value was 1.4%; the “Three freeze–thaw cycles, RE” value was determined as 10.5%; the “−80°C for 30 days, RE” value is given as −4.1%. In addition, in data set [2] (medium QC level), the “Stability during 24 h at 4°C, RE” value is 5.4%; the “Three freeze–thaw cycles, RE” value is −1.8%; the “−80°C for 30 days, RE” value was 3.1%.
